Data set [1] relates to human epithelial cells (HeLa). In words: Alamar Blue [resazurin] metabolic activity of tissue culture cells used in invasion assays. In kind it is cell-based. An excerpt:
We expect that Compound 1 can impact host cell interaction but have little or no effect on growth rate of Shigella, based on our results with non-pathogenic E. coli strains.
For orientation: Resazurin is reduced to fluorescent resorufin, in cell work by metabolically active cells.

The target of a further data set is T1, MBP-Rns (Escherichia coli, UniProt P16114).
T1 construct: made in house
T1 sequence (P16114 whole entry): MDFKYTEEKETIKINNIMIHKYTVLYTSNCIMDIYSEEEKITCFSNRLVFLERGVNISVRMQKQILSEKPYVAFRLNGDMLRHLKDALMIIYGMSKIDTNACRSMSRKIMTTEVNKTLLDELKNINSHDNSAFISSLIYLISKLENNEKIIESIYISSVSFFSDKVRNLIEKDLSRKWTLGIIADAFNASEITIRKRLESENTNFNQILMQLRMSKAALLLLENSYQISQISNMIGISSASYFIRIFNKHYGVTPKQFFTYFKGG
The data set is described as follows: EMSA in vitro DNA binding by MBP-Rns. The class given is biochemical, Enterotoxigenic E. coli. An excerpt:
FIGS. 9A-9B show inhibition of MBP-Rns and MBP-VirF by Compound 1. Quantification of EMSA of MBP-Rns (FIG. 9A) or example EMSA of MBP-VirF (FIG. 9B) DNA binding with the indicated inhibitor concentrations [micromolar]. F is Free DNA.
The compounds of the invention can be used for inhibition of virulence in vivo and in vitro activation by Rns and VirF.
In general terms: In EMSA bound probe runs differently from free probe, usually more slowly.

The next data set concerns the target T2, RhaS-GB1^201b (Escherichia coli, UniProt P09377, L201R).
T2 construct: solubility-enhancement tag to the C-terminus of full-length RhaS L201R; GB1basic (basic variant of GB1 solubility-enhancement tag) (C); made in house; host or cells: E. coli Acella, pET21-derived plasmid
In words: EMSA in vitro DNA binding by RhaS-GB1^201b. In kind it is biochemical, E. coli. An excerpt:
All proteins for this study were expressed in E. coli. Untagged CRP was purified by Ni^2+-affinity chromatography as described. Lad protein was purified by ammonium sulfate precipitation and phosphocellulose column chromatography as described. RhaS-GB1^201b and GB1^b-RhaR were purified by Ni^2+-affinity chromatography. Briefly, plasmids derived from pET21 and expressing RhaS-GB1^201b and GB1^b-RhaR were transformed into competent cells of strains Acella™ (MoBiTec, Gottingen, Germany) or ArcticExpress(DE3) (Agilent Technologies, Santa Clara Calif.), respectively. The cells were grown in 1 liter TY plus ampicillin and rhamnose. Gentamycin was also added for GB1^b-RhaR. The cells were grown to OD600 of 0.5, transferred to a 15° C. shaker, 0.1 mM IPTG was added, and then incubated overnight. Cells were harvested by centrifugation and then resuspended in 30 mL of cold binding buffer (20 mM Tris, 500 mM NaCl, 5 mM imidazole, pH 7.9) plus L-rhamnose. […]
IRD700- and DY682-labeled oligos were from Eurofins MWG Operon. […] EMSA gels were imaged using an Odyssey infrared imager (LI-COR, Lincoln, Nebr.), and quantified using the Odyssey software, version 3.0.30. […] Inhibition values were calculated and graphs were drawn as for in vivo dose-response experiments.

Structures are written as SMILES. pIC50: −log10 of the molar value.

T2 sequence (P09377 whole entry L201R): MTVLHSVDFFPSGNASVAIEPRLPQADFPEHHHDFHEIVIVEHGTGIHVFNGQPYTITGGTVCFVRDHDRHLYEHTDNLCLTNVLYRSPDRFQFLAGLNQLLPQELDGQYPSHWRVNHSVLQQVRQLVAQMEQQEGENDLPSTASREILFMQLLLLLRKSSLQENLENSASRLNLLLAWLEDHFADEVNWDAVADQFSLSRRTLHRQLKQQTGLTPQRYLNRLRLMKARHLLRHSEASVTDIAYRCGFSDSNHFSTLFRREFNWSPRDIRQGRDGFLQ

As usually defined, the pIC50 is −log10 of the IC50, conventionally taken in molar units. Higher therefore signals a low IC50. For `CCCCN1C=C(c2ccc3ccccc3n2)C(C[N+](=O)[O-])c2ccccc21` (stereo not shown) [Compound 1, 1-butyl-4-(nitromethyl)-3-quinolin-2-yl-4H-quinoline], the “metabolic activity of the tissue culture cells” value in data set [1] is “did not have any effect”. Besides, on MBP-Rns, the “inhibition of in vitro DNA binding by purified Rns” value was “similarly inhibits”. Moreover, on RhaS-GB1^201b, the pIC50 is about 4.15. The “inhibition of DNA binding by RhaS-GB1^201b” value at RhaS-GB1^201b (EMSA, dose-dependent) is reported as “fully inhibit DNA binding”.
